Results reported in the NIST ThermoML archive (doi:10.1021/acs.jced.7b00106).
“And” between values parts separate entries of the source, which are not always exact repeats. Identical values can stand only once.

Settings: Hot wire method

FC(F)(F)/C=C/Cl [(E)-1-chloro-3,3,3-trifluoroprop-1-ene]
Settings	thermal conductivity
362.89 K, 26388 kPa, Liquid	0.07962 W/m/K
362.94 K, 8395 kPa, Liquid	0.06981 W/m/K
362.97 K, 8410 kPa, Liquid	0.06989 W/m/K
363.01 K, 5513 kPa, Liquid	0.06793 W/m/K
363.02 K, 5522 kPa, Liquid	0.06801 W/m/K
363.04 K, 15375 kPa, Liquid	0.07401 W/m/K
363.05 K, 588 kPa, Fluid (supercritical or subcritical phases)	0.01642 W/m/K
363.05 K, 3030 kPa, Liquid	0.06616 W/m/K
363.06 K, 3018 kPa, Liquid	0.06615 W/m/K
363.06 K, 18623 kPa, Liquid	0.07592 W/m/K
363.07 K, 781 kPa, Liquid	0.06438 W/m/K
363.07 K, 11657 kPa, Liquid	0.07182 W/m/K
363.07 K, 11679 kPa, Liquid	0.07186 W/m/K
363.07 K, 15350 kPa, Liquid	0.07393 W/m/K
363.07 K, 18631 kPa, Liquid	0.07609 W/m/K
363.08 K, 794 kPa, Liquid	0.06441 W/m/K
363.17 K, 485 kPa, Fluid (supercritical or subcritical phases)	0.01636 W/m/K
363.25 K, 8386 kPa, Liquid	0.0699 W/m/K
363.25 K, 8410 kPa, Liquid	0.06983 W/m/K
363.28 K, 18567 kPa, Liquid	0.07546 W/m/K
363.3 K, 5515 kPa, Liquid	0.0679 W/m/K
363.3 K, 15333 kPa, Liquid	0.0739 W/m/K
363.3 K, 18619 kPa, Liquid	0.07574 W/m/K
363.31 K, 369 kPa, Fluid (supercritical or subcritical phases)	0.01625 W/m/K
363.31 K, 5517 kPa, Liquid	0.06789 W/m/K
363.32 K, 15362 kPa, Liquid	0.07394 W/m/K
363.34 K, 11659 kPa, Liquid	0.07179 W/m/K
363.35 K, 3013 kPa, Liquid	0.06606 W/m/K
363.35 K, 11674 kPa, Liquid	0.07181 W/m/K
363.36 K, 3021 kPa, Liquid	0.06613 W/m/K
363.38 K, 789 kPa, Liquid	0.06433 W/m/K
363.39 K, 791 kPa, Liquid	0.06436 W/m/K
363.56 K, 18588 kPa, Liquid	0.07568 W/m/K
363.56 K, 18589 kPa, Liquid	0.07561 W/m/K
363.85 K, 18555 kPa, Liquid	0.07553 W/m/K
363.86 K, 18574 kPa, Liquid	0.07558 W/m/K
381.79 K, 728 kPa, Fluid (supercritical or subcritical phases)	0.01756 W/m/K
381.91 K, 529 kPa, Fluid (supercritical or subcritical phases)	0.01757 W/m/K
381.98 K, 885 kPa, Fluid (supercritical or subcritical phases)	0.0177 W/m/K
381.99 K, 883 kPa, Fluid (supercritical or subcritical phases)	0.01771 W/m/K
382.06 K, 727 kPa, Fluid (supercritical or subcritical phases)	0.0176 W/m/K
382.19 K, 530 kPa, Fluid (supercritical or subcritical phases)	0.01766 W/m/K
382.26 K, 884 kPa, Fluid (supercritical or subcritical phases)	0.01776 W/m/K
382.27 K, 885 kPa, Fluid (supercritical or subcritical phases)	0.01778 W/m/K
382.29 K, 1304 kPa, Liquid	0.05933 W/m/K
382.3 K, 1303 kPa, Liquid	0.0594 W/m/K
382.3 K, 7889 kPa, Liquid	0.06498 W/m/K
382.3 K, 7898 kPa, Liquid	0.065 W/m/K
382.32 K, 1195 kPa, Fluid (supercritical or subcritical phases)	0.01851 W/m/K
382.32 K, 1196 kPa, Fluid (supercritical or subcritical phases)	0.01849 W/m/K
382.35 K, 727 kPa, Fluid (supercritical or subcritical phases)	0.01767 W/m/K
382.35 K, 20108 kPa, Liquid	0.07266 W/m/K
382.36 K, 20093 kPa, Liquid	0.07261 W/m/K
382.37 K, 6276 kPa, Liquid	0.06375 W/m/K
382.38 K, 6283 kPa, Liquid	0.06377 W/m/K
382.38 K, 35584 kPa, Liquid	0.0803 W/m/K
382.39 K, 35567 kPa, Liquid	0.08024 W/m/K
382.4 K, 16804 kPa, Liquid	0.07075 W/m/K
382.41 K, 16825 kPa, Liquid	0.07099 W/m/K
382.42 K, 33043 kPa, Liquid	0.07905 W/m/K
382.42 K, 33046 kPa, Liquid	0.07909 W/m/K
382.44 K, 13721 kPa, Liquid	0.06888 W/m/K
382.45 K, 13744 kPa, Liquid	0.06889 W/m/K
382.46 K, 28331 kPa, Liquid	0.07696 W/m/K
382.47 K, 4293 kPa, Liquid	0.06211 W/m/K
382.47 K, 28334 kPa, Liquid	0.07681 W/m/K
382.48 K, 1001 kPa, Fluid (supercritical or subcritical phases)	0.01789 W/m/K
382.48 K, 4301 kPa, Liquid	0.06219 W/m/K
382.49 K, 529 kPa, Fluid (supercritical or subcritical phases)	0.01769 W/m/K
382.49 K, 1000 kPa, Fluid (supercritical or subcritical phases)	0.01794 W/m/K
382.5 K, 2615 kPa, Liquid	0.06083 W/m/K
382.51 K, 2614 kPa, Liquid	0.06065 W/m/K
382.51 K, 10968 kPa, Liquid	0.06711 W/m/K
382.51 K, 10976 kPa, Liquid	0.0674 W/m/K
382.53 K, 24122 kPa, Liquid	0.07474 W/m/K
382.54 K, 24143 kPa, Liquid	0.07473 W/m/K
382.55 K, 1308 kPa, Liquid	0.0594 W/m/K
382.56 K, 884 kPa, Fluid (supercritical or subcritical phases)	0.01781 W/m/K and 0.01779 W/m/K
382.56 K, 1302 kPa, Liquid	0.05937 W/m/K
382.56 K, 7890 kPa, Liquid	0.06497 W/m/K
382.56 K, 7897 kPa, Liquid	0.06497 W/m/K
382.56 K, 8382 kPa, Liquid	0.06533 W/m/K
382.56 K, 8389 kPa, Liquid	0.06536 W/m/K
382.58 K, 20086 kPa, Liquid	0.07258 W/m/K
382.58 K, 20109 kPa, Liquid	0.07262 W/m/K
382.6 K, 1196 kPa, Fluid (supercritical or subcritical phases)	0.01858 W/m/K
382.61 K, 1196 kPa, Fluid (supercritical or subcritical phases)	0.01858 W/m/K
382.62 K, 35572 kPa, Liquid	0.07991 W/m/K
382.63 K, 6276 kPa, Liquid	0.06372 W/m/K
382.63 K, 35594 kPa, Liquid	0.08017 W/m/K
382.64 K, 727 kPa, Fluid (supercritical or subcritical phases)	0.01771 W/m/K
382.64 K, 6276 kPa, Liquid	0.06375 W/m/K
382.65 K, 16810 kPa, Liquid	0.07072 W/m/K
382.65 K, 33011 kPa, Liquid	0.079 W/m/K
382.66 K, 16821 kPa, Liquid	0.07073 W/m/K
382.66 K, 33037 kPa, Liquid	0.07905 W/m/K
382.7 K, 13733 kPa, Liquid	0.0689 W/m/K
382.71 K, 13730 kPa, Liquid	0.06888 W/m/K
382.71 K, 28321 kPa, Liquid	0.07678 W/m/K
382.71 K, 28350 kPa, Liquid	0.07685 W/m/K
382.72 K, 4298 kPa, Liquid	0.06213 W/m/K
382.74 K, 4301 kPa, Liquid	0.06214 W/m/K
382.77 K, 2602 kPa, Liquid	0.06057 W/m/K
382.77 K, 2621 kPa, Liquid	0.06066 W/m/K
382.77 K, 10954 kPa, Liquid	0.06703 W/m/K
382.77 K, 24142 kPa, Liquid	0.07452 W/m/K
382.78 K, 1001 kPa, Fluid (supercritical or subcritical phases)	0.01826 W/m/K
382.78 K, 24124 kPa, Liquid	0.07466 W/m/K
382.79 K, 1000 kPa, Fluid (supercritical or subcritical phases)	0.0181 W/m/K
382.79 K, 10954 kPa, Liquid	0.06707 W/m/K
382.81 K, 530 kPa, Fluid (supercritical or subcritical phases)	0.01767 W/m/K
382.82 K, 7886 kPa, Liquid	0.06511 W/m/K
382.83 K, 1306 kPa, Liquid	0.05933 W/m/K
382.83 K, 8368 kPa, Liquid	0.06524 W/m/K
382.83 K, 8383 kPa, Liquid	0.06552 W/m/K
382.84 K, 1310 kPa, Liquid	0.05941 W/m/K
382.84 K, 7894 kPa, Liquid	0.06495 W/m/K
382.84 K, 20089 kPa, Liquid	0.07256 W/m/K
382.85 K, 20100 kPa, Liquid	0.07257 W/m/K
382.87 K, 883 kPa, Fluid (supercritical or subcritical phases)	0.01794 W/m/K
382.87 K, 885 kPa, Fluid (supercritical or subcritical phases)	0.01792 W/m/K
382.87 K, 35575 kPa, Liquid	0.08013 W/m/K
382.87 K, 35578 kPa, Liquid	0.08012 W/m/K
382.91 K, 1197 kPa, Fluid (supercritical or subcritical phases)	0.01873 W/m/K
382.91 K, 6263 kPa, Liquid	0.06365 W/m/K
382.91 K, 6280 kPa, Liquid	0.06372 W/m/K
382.91 K, 33006 kPa, Liquid	0.07896 W/m/K
382.91 K, 33028 kPa, Liquid	0.07899 W/m/K
382.92 K, 16811 kPa, Liquid	0.07071 W/m/K
382.92 K, 16817 kPa, Liquid	0.0707 W/m/K
382.96 K, 28308 kPa, Liquid	0.07685 W/m/K
382.97 K, 727 kPa, Fluid (supercritical or subcritical phases)	0.01778 W/m/K
382.97 K, 28333 kPa, Liquid	0.07679 W/m/K
382.98 K, 13709 kPa, Liquid	0.06879 W/m/K
382.98 K, 13730 kPa, Liquid	0.06887 W/m/K
383 K, 4290 kPa, Liquid	0.06207 W/m/K
383.01 K, 4292 kPa, Liquid	0.0621 W/m/K
383.03 K, 24102 kPa, Liquid	0.07464 W/m/K
383.04 K, 24119 kPa, Liquid	0.07466 W/m/K
383.05 K, 10954 kPa, Liquid	0.06701 W/m/K
383.06 K, 2617 kPa, Liquid	0.06075 W/m/K
383.06 K, 10970 kPa, Liquid	0.06706 W/m/K
383.07 K, 2612 kPa, Liquid	0.06066 W/m/K
383.08 K, 1001 kPa, Fluid (supercritical or subcritical phases)	0.01823 W/m/K
383.08 K, 1002 kPa, Fluid (supercritical or subcritical phases)	0.01821 W/m/K
